Values after ≈ are worked out from the molar mass of the structure shown. Like-named read-outs stand apart in the source and are kept apart here.
Key:
[1] = system: M. tuberculosis transformed with luxABCDE; experiment: microbe, parasite or virus in culture; type: cell-based, Mycobacterium tuberculosis; conditions: for MIC90 / MBC: Mycobacterium tuberculosis, 168 h
[2] = system: non-replicating cultures of M. tuberculosis H37Rv transformed with lux ABCDE; experiment: microbe, parasite or virus in culture; type: cell-based, Mycobacterium tuberculosis; conditions: for MIC90 LORA/MABA: ratio of LORA MIC90 to MABA MIC90
[3] = day 7 of time-kill study, read-out: MBC99
[4] = […], ≥99% reduction in luminescence, read-out: MBC99 Day 7 (Lux Assay) MBC
[5] = Mycobacterium tuberculosis, H37RV, […], ≥90% reduction in luminescence, read-out: MIC90 LORA
[6] = […], ≥90% reduction in luminescence, read-out: MIC90 LORA

Row | SMILES | MBC99 Day 7 (Lux Assay) MBC Rel to RMP [1] | MBC [1, 4] [µM] | MIC90 LORA Rel to RMP [2] | MIC90 LORA/MABA [2] | MIC90 [2, 5] [µM] | also measured
1 | COc1nc2ccc(Br)cc2cc1[C@@H](c1ccccc1)[C@@](O)(CCN(C)C)c1cccc2ccccc12 [Bedaquiline] | – | – | – | – | – | MIC90 ([1]; day 7 of time-kill study): 0.031 µM (≈ 0.0172 µg/mL); MBC [1, 3]: 0.124 µM (≈ 0.0689 µg/mL)
2 | CO[C@H]1/C=C/O[C@@]2(C)Oc3c(C)c(O)c4c(=O)c(c5oc6cccc(OCCCCN7CCN(C(=O)CN8CCOCC8)CC7)c6nc-5c4c3C2=O)NC(=O)/C(C)=C\C=C\[C@H](C)[C@H](O)[C@@H](C)[C@@H](O)[C@@H](C)[C@H](OC(C)=O)[C@@H]1C [Compound 5e, (7S,9E,11S,12R,13S,14R,15R,16R,17S,18S,19E,21Z)-2,15,17-Trihydroxy-11-methoxy-3,7,12,14,16,18,22-heptamethyl-32-(4-{4-[2-(morpholin-4-yl)acetyl]piperazin-1-yl}butoxy)-6,23,37-trioxo-8,27,38-trioxa-24,34-diazahexacyclo[23.11.1.1^4,7.0^5,36.0^26,35.0^28,33]octatriaconta-1(36)2,4,9,19,21,25,28(33)29,31,34-undecaen-13-yl acetate] | 0.09 | 0.04 | 0.27 | 0.57 | – | MIC [2, 5]: 0.047 µM
3 | CCC(=O)N1CCN(Cc2cccc(COc3cccc4oc5c6c(=O)c7c(O)c(C)c8c(c7c-5nc34)C(=O)[C@@](C)(O/C=C/[C@H](OC)[C@@H](C)[C@@H](OC(C)=O)[C@H](C)[C@H](O)[C@H](C)[C@@H](O)[C@@H](C)/C=C/C=C(/C)C(=O)N6)O8)c2)CC1 [Compound 11d, (7S,9E,11S,12R,13S,14R,15R,16R,17S,1S,19E,21Z)-2,15,17-Trihydroxy-11-methoxy-3,7,12,14,16,18,22-heptamethyl-6,23,37-trioxo-32-{(3-[(4-propanoylpiperazin-1-yl)methyl]phenyl}methoxy)-8,27,38-trioxa-24,34-diazahexacyclo[23.11.1.1^4,7.0^5,36.0^26,35.0^28,33]octatriaconta-1(36)2,4,9,19,21,25,28,30,32,34-undecaen-13-yl acetate] | 0.08 | 0.058 | – | – | < 0.1 | –
4 | CO[C@H]1/C=C/O[C@@]2(C)Oc3c(C)c(O)c4c(=O)c(c5oc6cccc(OCc7ccc(CN8CCN(C(=O)CN9CCOCC9)CC8)cc7)c6nc-5c4c3C2=O)NC(=O)/C(C)=C\C=C\[C@H](C)[C@H](O)[C@@H](C)[C@@H](O)[C@@H](C)[C@H](OC(C)=O)[C@@H]1C [Compound 16c, (7S,9E,11S,12R,13S,14R,15R,16R,17S,18S,19E,21Z)-2,15,17-Trihydroxy-11-methoxy-3,7,12,14,16,18,22-heptamethyl-32-{[4-({4-[2-(morpholin-4-yl)acetyl]piperazin-1-yl}methyl)phenyl]methoxy}-6,23,37-trioxo-8,27,38-trioxa-24,34-diazahexacyclo[23.11.1.1^4,7.0^5,36.0^26,35.0^28,33]octatriaconta-1(36)2,4,9,19,21,25,28,30,32,34-undecaen-13-yl acetate] | 0.08 | 0.061 | – | – | – | –
5 | CO[C@H]1/C=C/O[C@@]2(C)Oc3c(C)c(O)c4c(=O)c(c5oc6cc(N7CCN(CC(C)C)CC7)cc(N7CCN(CC(C)C)CC7)c6nc-5c4c3C2=O)NC(=O)/C(C)=C\C=C\[C@H](C)[C@H](O)[C@@H](C)[C@@H](O)[C@@H](C)[C@H](OC(C)=O)[C@@H]1C [Compound 17u, 7S,9E,11S,12R,13S,14R,15R,16R,17S,18S,19E,21Z)-2,15,17-trihydroxy-11-methoxy-3,7,12,14,16,18,22-heptamethyl-30,32-bis[4-(2-methylpropyl)piperazin-1-yl]-6,23,37-trioxo-8,27,38-trioxa-24,34-diazahexacyclo[23.11.1.1^4,7.0^5,36.0^26,35.0^28,33]octatriaconta-1,3,5(36)9,19,21,25,28,30,32,34-undecaen-13-yl acetate] | 0.05 | 0.025 | – | – | – | –
6 | CO[C@H]1/C=C/O[C@@]2(C)Oc3c(C)c(O)c4c(=O)c(c5oc6cc(C=O)cc(N7CCN(C)CC7)c6nc-5c4c3C2=O)NC(=O)/C(C)=C\C=C\[C@H](C)[C@H](O)[C@@H](C)[C@@H](O)[C@@H](C)[C@H](OC(C)=O)[C@@H]1C [Compound 30b, (7S,9E,11S,12R,13S,14R,15R,16R,17S,18S,19E,21Z)-30-Formyl-2,15,17-trihydroxy-11-methoxy-3,7,12,14,16,18,22-heptamethyl-32-(4-methylpiperazin-1-yl)-6,23,37-trioxo-8,27,38-trioxa-24,34-diazahexacyclo[23.11.1.1^4,7.0^5,36.0^26,35.0^28,33]octatriaconta-1(36)2,4,9,19,21,25,28,30,32,34-undecaen-13-yl acetate] | – | – | 0.44 | 3.1 | – | MIC90 [2, 6]: 0.114 µM
7 | CO[C@H]1/C=C/O[C@@]2(C)Oc3c(C)c(O)c4c(=O)c(c5oc6cc(C)cc(N7CCN(CC(C)C)CC7)c6nc-5c4c3C2=O)NC(=O)/C(C)=C\C=C\[C@H](C)[C@H](O)[C@@H](C)[C@@H](O)[C@@H](C)[C@H](OC(C)=O)[C@@H]1C [Compound 30c, (7S,9E,11S,12R,13S,14R,15R,16R,17S,18S,19E,21Z)-2,15,17-Trihydroxy-11-methoxy-3,7,12,14,16,18,22,30-octamethyl-32-[4-(2-methylpropyl)piperazin-1-yl]-6,23,37-trioxo-8,27,38-trioxa-24,34-diazahexacyclo[23.11.1.1^4,7.0^5,36.0^26,35.0^28,33]octatriaconta-1(36)2,4,9,19,21,25,28,30,32,34-undecaen-13-yl acetate] | – | – | <0.06 | – | < 0.016 | –
8 | CO[C@H]1/C=C/O[C@@]2(C)Oc3c(C)c(O)c4c(=O)c(c5oc6cc(C=O)cc(N7CCN(CC(C)C)CC7)c6nc-5c4c3C2=O)NC(=O)/C(C)=C\C=C\[C@H](C)[C@H](O)[C@@H](C)[C@@H](O)[C@@H](C)[C@H](OC(C)=O)[C@@H]1C [Compound 30d, (7S,9E,11S,12R,13S,14R,15R,16R,17S,1S,19E,21Z)-30-Formyl-2,15,17-trihydroxy-11-methoxy-3,7,12,14,16,18,22-heptamethyl-32-[4-(2-methylpropyl)piperazin-1-yl]-6,23,37-trioxo-8,27,38-trioxa-24,34-diazahexacyclo[23.11.1.1^4,7.0^5,36.0^26,35.0^28,33]octatriaconta-1(36)2,4,9,19,21,25,28,30,32,34-undecaen-13-yl acetate] | – | – | 0.07 | – | – | MIC90 [2, 6]: 0.017 µM
9 | CO[C@H]1/C=C/O[C@@]2(C)Oc3c(C)c(O)c4c(=O)c(c5oc6cc(C)cc(N7CCN(C(=O)c8cccc(-c9ccccn9)c8)CC7)c6nc-5c4c3C2=O)NC(=O)/C(C)=C\C=C\[C@H](C)[C@H](O)[C@@H](C)[C@@H](O)[C@@H](C)[C@H](OC(C)=O)[C@@H]1C [Compound 30g, (7S,9E,11S,12R,13S,14R,15R,16R,17S,18S,19E,21Z)-2,15,17-Trihydroxy-11-methoxy-3,7,12,14,16,18,22,30-octamethyl-6,23,37-trioxo-32-{4-[3-(pyridin-2-yl)benzoyl]piperazin-1-yl}-8,27,38-trioxa-24,34-diazahexacyclo[23.11.1.1^4,7.0^5,36.0^26,35.0^28,33]octatriaconta-1(36)2,4,9,19,21,25,28,30,32,34-undecaen-13-yl acetate] | – | – | 0.16 | 1.2 | 0.032 | –
10 | CO[C@H]1/C=C/O[C@@]2(C)Oc3c(C)c(O)c4c(=O)c(c5oc6cc(C)cc(N7CCN(C(=O)c8ccc9occc9c8)CC7)c6nc-5c4c3C2=O)NC(=O)/C(C)=C\C=C\[C@H](C)[C@H](O)[C@@H](C)[C@@H](O)[C@@H](C)[C@H](OC(C)=O)[C@@H]1C [Compound 30h, (7S,9E,11S,12R,13S,14R,15R,16R,17S,18S,19E,21Z)-32-[4-(1-Benzofuran-5-carbonyl)piperazin-1-yl]-2,15,17-trihydroxy-11-methoxy-3,7,12,14,16,18,22,30-octamethyl-6,23,37-trioxo-8,27,38-trioxa-24,34-diazahexacyclo[23.11.1.1^4,7.0^5,36.0^26,35.0^28,33]octatriaconta-1(36)2,4,9,19,21,25,28,30,32,34-undecaen-13-yl acetate] | – | – | 0.20 | 2.2 | 0.042 | –
11 | CO[C@H]1/C=C/O[C@@]2(C)Oc3c(C)c(O)c4c(=O)c(c5oc6cc(C=Nc7ccc(N8CCOCC8)cc7)cc(N7CCN(C)CC7)c6nc-5c4c3C2=O)NC(=O)/C(C)=C\C=C\[C@H](C)[C@H](O)[C@@H](C)[C@@H](O)[C@@H](C)[C@H](OC(C)=O)[C@@H]1C [Compound 32, (7S,9E,11S,12R,13S,14R,15R,16R,17S,18S,19E,21Z)-2,15,17-trihydroxy-11-methoxy-3,7,12,14,16,18,22-heptamethyl-32-(4-methylpiperazin-1-yl)-30-{N-[4-(morpholin-4-yl)phenyl]carboximidoyl}-6,23,37-trioxo-8,27,38-trioxa-24,34-diazahexacyclo[23.11.1.1^4,7.0^5,36.0^26,35.0^28,33]octatriaconta-1,3,5(36)9,19,21,25,28,30,32,34-undecaen-13-yl acetate] | – | – | 0.45 | 2.5 | 0.118 | –
12 | NNC(=O)c1ccncc1 [Isoniazid, isoniazid, reference compound] | – | – | – | – | – | MIC90 ([1]; day 7 of time-kill study): 0.409 µM (≈ 0.0561 µg/mL); MBC [1, 3]: 3.59 µM (≈ 0.492 µg/mL)
13 | O=[N+]([O-])c1cn2c(n1)OC[C@@H](OCc1ccc(OC(F)(F)F)cc1)C2 [Pretomanid, pretomanid, reference compound] | – | – | – | – | – | MIC90 ([1]; day 7 of time-kill study): 0.47 µM (≈ 0.169 µg/mL); MBC [1, 3]: 0.597 µM (≈ 0.214 µg/mL)
